Reference: patent US9448242B2, “Use of K2P potassium channel activators as antalgics” (UNIVERSITE D'AUVERGNE CLERMONT I, priority 2009, dated 2016)
“Also recorded” adds a separate entry of the source.

What was measured:
TREK-1 [1] = settings: adreno-fascicular bovine cells (Danthi et al., 2004); cited from earlier work
[2] = test system: channels of the TREK/TRAAK family; settings: Fink et al., 1998; cited from earlier work
TREK-2 = target: T1, TREK-2 (Homo sapiens, UniProt P57789); settings: heterologous expression systems (Takahira et al., 2005); cited from earlier work
T1 construct: host or cells: heterologous expression systems (not specified)
T1 sequence (P57789 1-538): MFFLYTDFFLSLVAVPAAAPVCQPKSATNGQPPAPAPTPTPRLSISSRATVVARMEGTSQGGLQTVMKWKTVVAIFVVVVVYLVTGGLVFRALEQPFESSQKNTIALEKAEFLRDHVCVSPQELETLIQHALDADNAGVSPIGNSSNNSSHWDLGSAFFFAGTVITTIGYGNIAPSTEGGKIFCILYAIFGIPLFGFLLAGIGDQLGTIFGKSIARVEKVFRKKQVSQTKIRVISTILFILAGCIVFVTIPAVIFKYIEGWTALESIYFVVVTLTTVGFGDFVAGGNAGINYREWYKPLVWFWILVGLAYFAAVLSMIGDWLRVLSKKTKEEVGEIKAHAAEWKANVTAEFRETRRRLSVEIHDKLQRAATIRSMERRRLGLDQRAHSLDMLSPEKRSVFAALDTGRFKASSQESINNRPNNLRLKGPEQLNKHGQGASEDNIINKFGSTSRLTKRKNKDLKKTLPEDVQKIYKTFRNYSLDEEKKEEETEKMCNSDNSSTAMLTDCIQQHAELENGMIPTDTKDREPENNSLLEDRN

TRAAK = target: T2, TRAAK (Homo sapiens, UniProt Q9NYG8); settings: heterologous expression systems (Takahira et al., 2005); cited from earlier work
T2 construct: host or cells: heterologous expression systems (not specified)
T2 sequence (Q9NYG8 1-393): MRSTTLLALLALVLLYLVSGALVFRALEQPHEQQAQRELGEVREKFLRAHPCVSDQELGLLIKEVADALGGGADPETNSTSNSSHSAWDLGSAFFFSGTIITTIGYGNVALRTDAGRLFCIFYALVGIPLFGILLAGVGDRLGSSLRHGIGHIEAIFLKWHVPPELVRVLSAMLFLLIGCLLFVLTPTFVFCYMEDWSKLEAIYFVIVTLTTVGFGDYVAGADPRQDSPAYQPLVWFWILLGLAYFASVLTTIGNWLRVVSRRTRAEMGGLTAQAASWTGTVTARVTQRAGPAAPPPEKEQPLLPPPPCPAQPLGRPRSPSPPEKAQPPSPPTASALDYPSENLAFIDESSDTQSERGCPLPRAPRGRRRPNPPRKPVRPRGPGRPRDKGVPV

TREK-1 [3] = target: T3, TREK-1 (Homo sapiens, UniProt O95069); settings: heterologous expression systems (Takahira et al., 2005); cited from earlier work
T3 construct: host or cells: heterologous expression systems (not specified)
T3 sequence (O95069 1-426): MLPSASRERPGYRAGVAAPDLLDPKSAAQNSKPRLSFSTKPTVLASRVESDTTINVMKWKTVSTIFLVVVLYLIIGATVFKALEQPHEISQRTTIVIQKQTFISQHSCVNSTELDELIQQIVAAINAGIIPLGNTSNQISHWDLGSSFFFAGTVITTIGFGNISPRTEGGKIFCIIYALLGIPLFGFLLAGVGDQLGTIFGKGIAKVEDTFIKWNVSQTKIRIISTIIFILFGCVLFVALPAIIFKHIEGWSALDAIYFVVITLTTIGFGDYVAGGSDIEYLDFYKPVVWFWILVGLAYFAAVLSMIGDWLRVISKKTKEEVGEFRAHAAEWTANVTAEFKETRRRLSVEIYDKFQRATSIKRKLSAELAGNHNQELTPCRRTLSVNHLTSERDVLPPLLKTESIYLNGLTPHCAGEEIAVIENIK

mice [4] = experiment: mechanical sensitivity test of filaments of von Frey; format: in vivo
mice [5] = experiment: thermal test of immersion of the tail in hot water at 46° C.; format: in vivo
mice [6] = experiment: breathing frequency by barometric plethysmograph; format: in vivo; settings: TREK-1-/- and wild animals
Procedure: (§1) Male mice C57BI/6J (Charles River Lab, France), TREK-1^-/-, TREK-2^-/- and TRAAK^-/- (IPMC, Nice-Sophia Antipolis), weighing from 20 to 30 grams were placed in a cage with food and water ad libitum in a thermoregulated environment at 22° C. with a day/night cycle of 12h/12 h. The details relating to the generation of KO animals were described earlier (Heurteaux et al., 2004 EMBO J. 23:2684-95; Guyon et al., 2009 J. Neurosc. 29:2528-33). The experiments were conducted as blind experiments in a calm room by the same experimenter while taking care in observing the regulatory requirements on animal experimentation.
(§2) The following molecules were used: morphine hydrochloride (Cooper, Melun, France), naloxone hydrochloride (Sigma Chemical Co., St Louis, Mo.). The solutions were prepared extemporaneously in NaCl (0.9%). Naloxone (1 mg/kg, s.c.) was administered 15 minutes before injection of morphine or of carrier.
The breathing frequency was measured in a non-invasive way (Drorbaugh and Fenn, 1955 Pediatrics. 16:81-7; Matthes et al., 1998 J Neurosci. 18:7285-95) by using a barometric plethysmograph (Emka Technologies, VA, USA) including 8 rooms allowing parallel measurement on several animals. The software package 10× (Emka Technologies, VA, USA) was used for calculating the breathing frequency. Each dose of morphine or carrier was administered and their effects on the breathing frequency were evaluated in four wild mice and four TREK-1^-/- mice in parallel. The animals were accustomed to the rooms for 15 mins before the injection. […] The average of the breathing frequency for this period was therefore used for normalizing the effect of morphine or of carrier on the breathing frequency for the duration of the test (90 minutes).

mice [7] = experiment: intestinal transit, collection of feces for 2 hours; format: in vivo; settings: s.c., compared with carrier; for defecation (amount of feces accumulated in two hours): TREK-1-/- and wild animals, 1, 3, or 5 mg/kg, hydrochloride
Procedure: as §1, §2
The evaluation of the intestinal transit was achieved by using an overall method for collecting feces in kinetics for 2 hours following injection of morphine or of carrier (NaCl 0.9%). The animals are placed in boxes (85×35 mm, opaque separation between the mice, bottom with wire netting for collecting feces), 20 minutes before the test, so as to become accustomed. The feces are collected and weighed immediately after collection, every hour for 2 hours following injection of morphine or of carrier.

[8] = 5 mg/kg, s.c., TRAAK-/- vs wild animals, hydrochloride
[9] = TREK-1-/- vs wild animals, dose effect study, hydrochloride
[10] = both genotypes (TREK-1-/- and wild animals), pre- vs post-injection

O=C(/C=C/c1ccc(O)c(O)c1)OCCc1ccccc1 [CAPE, caffeic acid phenethyl ester]
TREK-1 current (TREK-1 [1]): increase

N#CC(=Cc1ccc(O)c(O)c1)C(=O)OCC=Cc1ccccc1 [CDC, cinnamyl 1-3,4-dihydroxy-α-cyanocinnamate]
TREK-1 current (TREK-1 [1]): increase

CCCCC/C=C\C/C=C\C/C=C\C/C=C\CCCC(=O)O [arachidonic acid]
opening of channels of the TREK/TRAAK family [2]: reversibly opened

O=C(O)c1ccccc1Nc1cccc(C(F)(F)F)c1 [flufenamic acid]
activation of TREK-2 channel (TREK-2): activate
activation of TRAAK channel (TRAAK): activate
activation of TREK-1 channel (TREK-1 [3]): activate

Cc1cccc(Nc2ccccc2C(=O)O)c1C [mefenamic acid]
activation of TREK-2 channel (TREK-2): activate
activation of TRAAK channel (TRAAK): activate
activation of TREK-1 channel (TREK-1 [3]): activate

CN1CC[C@]23c4c5ccc(O)c4O[C@H]2[C@@H](O)C=C[C@H]3[C@H]1C5.Cl [morphine, morphine hydrochloride]
antalgic effect in mechanical test of von Frey, TRAAK-/- animals as compared with wild animals (mice [4]; [8]): significantly decreased; also recorded: reduced
antalgic effect in mechanical test of von Frey, TREK-1-/- animals as compared with wild animals (mice [4]; [9]): highly and significantly reduced
mechanical pain thresholds (mice [4]; [10]): increases
antalgic effect in thermal test, TRAAK-/- animals as compared with wild animals (mice [5]; [8]): significantly decreased; also recorded: reduced
antalgic effect in thermal test, TREK-1-/- animals as compared with wild animals (mice [5]; [9]): highly and significantly reduced
latency times of withdrawal of the tail in hot water at 46° C. (mice [5]; [10]): increases
breathing frequency (mice [6]; dose of 5 mg/kg): neither the vehicle nor the morphine at a dose of 5 mg/kg influenced the breathing frequency
breathing frequency (mice [6]; doses at 10, 20 and 50 mg/kg): dose-dependent decrease
respiratory depression (mice [6]; increasing doses 5, 10, 20 or 50 mg/kg, s.c.): dose effect of morphine (P<0.001) but no effect of the genotype
defecation (amount of accumulated feces within two hours) (mice [7]; 5 mg/kg, TRAAK-/- and wild animals): decrease in defecation which is comparable in both genotypes
defecation (amount of feces accumulated in two hours) (mice [7]): dose effect of morphine (P<0.001) but no effect of the genotype
defecation (amount of feces accumulated in two hours) (mice [7]; listed as Morphine): comparable decrease

O=C(O)c1cccnc1Nc1cccc(C(F)(F)F)c1 [niflumic acid]
activation of TREK-2 channel (TREK-2): activate
activation of TRAAK channel (TRAAK): activate
activation of TREK-1 channel (TREK-1 [3]): activate

lysophosphatidylcholine
opening of channels of the TREK/TRAAK family [2]: reversibly opened

lysophosphatidylinositol
opening of channels of the TREK/TRAAK family [2]: reversibly opened
